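Dose response: 5 concentrations. Exposure: 48 h. Format: 96-well plates. Endpoint: linear interpolation; highest concentration if not reached. TGI: total growth inhibition.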
Columns and labels:
Test in all cases: growth of human tumour cells (NCI), 48 h
OVCAR-4 ovarian = system: OVCAR-4 ovarian
UACC-257 melanoma = system: UACC-257 melanoma
A498 renal = system: A498 renal
OVCAR-8 ovarian = system: OVCAR-8 ovarian
RPMI-8226 leukemia = system: RPMI-8226 leukemia
SF-295 CNS = system: SF-295 CNS
UACC-62 melanoma = system: UACC-62 melanoma
HL-60(TB) leukemia = system: HL-60(TB) leukemia
K-562 leukemia = system: K-562 leukemia
HS 578T breast = system: HS 578T breast
SR leukemia = system: SR leukemia
MDA-MB-435 = system: MDA-MB-435
HOP-62 NSCLC = system: HOP-62 NSCLC
CAKI-1 renal = system: CAKI-1 renal
SK-MEL-5 melanoma = system: SK-MEL-5 melanoma
786-0 renal = system: 786-0 renal
PC-3 prostate = system: PC-3 prostate
BT-549 breast = system: BT-549 breast
CCRF-CEM leukemia = system: CCRF-CEM leukemia
NCI-H226 lung = system: NCI-H226 lung
SK-MEL-28 melanoma = system: SK-MEL-28 melanoma
HOP-92 NSCLC = system: HOP-92 NSCLC
COLO 205 colon = system: COLO 205 colon
ACHN renal = system: ACHN renal
UO-31 renal = system: UO-31 renal
NCI/ADR-RES ovarian = system: NCI/ADR-RES ovarian
LOX IMVI melanoma = system: LOX IMVI melanoma
TK-10 renal = system: TK-10 renal
RXF 393 renal = system: RXF 393 renal
SK-OV-3 ovarian = system: SK-OV-3 ovarian
SN12C renal = system: SN12C renal
T-47D breast = system: T-47D breast
KM12 colon = system: KM12 colon
MDA-N = system: MDA-N
SNB-19 CNS = system: SNB-19 CNS
NCI-H522 lung = system: NCI-H522 lung
HCT-116 colon = system: HCT-116 colon
HCC-2998 colon = system: HCC-2998 colon
SF-268 CNS = system: SF-268 CNS
MCF7 breast = system: MCF7 breast
MOLT-4 leukemia = system: MOLT-4 leukemia
M14 melanoma = system: M14 melanoma
SNB-75 CNS = system: SNB-75 CNS
MDA-MB-231 breast = system: MDA-MB-231 breast
EKVX NSCLC = system: EKVX NSCLC
IGROV1 ovarian = system: IGROV1 ovarian
SW-620 colon = system: SW-620 colon
A549 NSCLC = system: A549 NSCLC
NCI-H460 lung = system: NCI-H460 lung
NCI-H23 lung = system: NCI-H23 lung
OVCAR-3 ovarian = system: OVCAR-3 ovarian
OVCAR-5 ovarian = system: OVCAR-5 ovarian
HCT-15 colon = system: HCT-15 colon
HT29 colon = system: HT29 colon
U251 CNS = system: U251 CNS
SK-MEL-2 melanoma = system: SK-MEL-2 melanoma
DU-145 prostate = system: DU-145 prostate
SF-539 CNS = system: SF-539 CNS
MALME-3M melanoma = system: MALME-3M melanoma

With CCN(CC)CCN1C=CC(C)C(C(=O)O)C1C(N)=O (centres undefined) the TGI (OVCAR-4 ovarian) was > 100 µM, the TGI (UACC-257 melanoma) was > 100 µM and the TGI (A498 renal) was > 100 µM. For the same compound, the TGI (OVCAR-8 ovarian) was > 100 µM, the TGI (RPMI-8226 leukemia) was > 100 µM and the TGI (SF-295 CNS) was > 100 µM. The TGI (UACC-62 melanoma) was > 100 µM, the TGI (HL-60(TB) leukemia) was > 100 µM and the TGI (K-562 leukemia) was > 100 µM. The TGI (HS 578T breast) was > 100 µM, the TGI (SR leukemia) was > 100 µM and the TGI (MDA-MB-435) was > 100 µM. For the same compound, the TGI (HOP-62 NSCLC) was > 100 µM, the TGI (CAKI-1 renal) was > 100 µM and the TGI (SK-MEL-5 melanoma) was > 100 µM. For the same compound, the TGI (786-0 renal) was > 100 µM, the TGI (PC-3 prostate) was > 100 µM and the TGI (BT-549 breast) was > 100 µM. For the same compound, the TGI (CCRF-CEM leukemia) was > 100 µM, the TGI (NCI-H226 lung) was > 100 µM and the TGI (SK-MEL-28 melanoma) was > 100 µM. The TGI (HOP-92 NSCLC) was > 100 µM, the TGI (COLO 205 colon) was > 100 µM and the TGI (ACHN renal) was > 100 µM. For the same compound, the TGI (UO-31 renal) was > 100 µM, the TGI (NCI/ADR-RES ovarian) was > 100 µM and the TGI (LOX IMVI melanoma) was > 100 µM. The TGI (TK-10 renal) was > 100 µM, the TGI (RXF 393 renal) was > 100 µM and the TGI (SK-OV-3 ovarian) was > 100 µM. For the same compound, the TGI (SN12C renal) was > 100 µM, the TGI (T-47D breast) was > 100 µM and the TGI (KM12 colon) was > 100 µM. The TGI (MDA-N) was > 100 µM, the TGI (SNB-19 CNS) was > 100 µM and the TGI (NCI-H522 lung) was > 100 µM. For the same compound, the TGI (HCT-116 colon) was > 100 µM, the TGI (HCC-2998 colon) was > 100 µM and the TGI (SF-268 CNS) was > 100 µM. For the same compound, the TGI (MCF7 breast) was > 100 µM, the TGI (MOLT-4 leukemia) was > 100 µM and the TGI (M14 melanoma) was > 100 µM. For the same compound, the TGI (SNB-75 CNS) was > 100 µM, the TGI (MDA-MB-231 breast) was > 100 µM and the TGI (EKVX NSCLC) was > 100 µM. The TGI (IGROV1 ovarian) was > 100 µM, the TGI (SW-620 colon) was > 100 µM and the TGI (A549 NSCLC) was > 100 µM. The TGI (NCI-H460 lung) was > 100 µM, the TGI (NCI-H23 lung) was > 100 µM and the TGI (OVCAR-3 ovarian) was > 100 µM. For the same compound, the TGI (OVCAR-5 ovarian) was > 100 µM, the TGI (HCT-15 colon) was > 100 µM and the TGI (HT29 colon) was > 100 µM. The TGI (U251 CNS) was > 100 µM, the TGI (SK-MEL-2 melanoma) was > 100 µM and the TGI (DU-145 prostate) was > 100 µM.
For N#CC1(C#N)C2=C(CCCC2)NC(c2ccc(Br)cc2)C1(C#N)C#N (centres undefined), the TGI (OVCAR-4 ovarian) was 20.7 µM, the TGI (UACC-257 melanoma) was 11.5 µM and the TGI (A498 renal) was 37.5 µM. For the same compound, the TGI (OVCAR-8 ovarian) was 11.5 µM, the TGI (RPMI-8226 leukemia) was 15.8 µM and the TGI (SF-295 CNS) was 56.5 µM. For the same compound, the TGI (UACC-62 melanoma) was 32.4 µM, the TGI (K-562 leukemia) was 12 µM and the TGI (HS 578T breast) was 44.6 µM. For the same compound, the TGI (SR leukemia) was 5.56 µM, the TGI (MDA-MB-435) was 9.05 µM and the TGI (HOP-62 NSCLC) was 35.7 µM. For the same compound, the TGI (CAKI-1 renal) was 4.99 µM, the TGI (SK-MEL-5 melanoma) was 28.8 µM and the TGI (786-0 renal) was 3.75 µM. For the same compound, the TGI (PC-3 prostate) was 26.8 µM, the TGI (BT-549 breast) was 26.9 µM and the TGI (SF-539 CNS) was 31.6 µM. For the same compound, the TGI (MALME-3M melanoma) was 3.83 µM, the TGI (NCI-H226 lung) was 39 µM and the TGI (SK-MEL-28 melanoma) was 25.9 µM. The TGI (HOP-92 NSCLC) was 18.9 µM, the TGI (COLO 205 colon) was 2.58 µM and the TGI (ACHN renal) was 3.88 µM. The TGI (UO-31 renal) was 3.03 µM, the TGI (NCI/ADR-RES ovarian) was > 100 µM and the TGI (LOX IMVI melanoma) was 6.93 µM. The TGI (TK-10 renal) was 16 µM, the TGI (RXF 393 renal) was 6.15 µM and the TGI (SK-OV-3 ovarian) was > 56.4 µM. For the same compound, the TGI (SN12C renal) was 7.06 µM, the TGI (T-47D breast) was 5.41 µM and the TGI (KM12 colon) was 29.4 µM. The TGI (MDA-N) was 14 µM, the TGI (SNB-19 CNS) was 30.1 µM and the TGI (NCI-H522 lung) was 3.06 µM. It also gave a TGI (HCT-116 colon) of 4.15 µM, a TGI (HCC-2998 colon) of 46.4 µM and a TGI (SF-268 CNS) of 24.7 µM. It also gave a TGI (MCF7 breast) of 19.9 µM, a TGI (MOLT-4 leukemia) of 15.7 µM and a TGI (M14 melanoma) of 7.04 µM. For the same compound, the TGI (SNB-75 CNS) was 30.8 µM, the TGI (MDA-MB-231 breast) was 23.9 µM and the TGI (EKVX NSCLC) was 25.3 µM. The TGI (IGROV1 ovarian) was 9.24 µM, the TGI (SW-620 colon) was 2.88 µM and the TGI (A549 NSCLC) was 30.9 µM. For the same compound, the TGI (NCI-H460 lung) was 63.6 µM, the TGI (NCI-H23 lung) was 30.3 µM and the TGI (OVCAR-3 ovarian) was 18.2 µM. It also gave a TGI (OVCAR-5 ovarian) of 24.9 µM, a TGI (HCT-15 colon) of 9.85 µM and a TGI (HT29 colon) of 10.1 µM. For the same compound, the TGI (U251 CNS) was 26.8 µM, the TGI (SK-MEL-2 melanoma) was 34.1 µM and the TGI (DU-145 prostate) was 25.1 µM.
In the case of O=C1c2ccccc2CCC1C(O)(C(F)(F)F)C(F)(F)F (centres undefined), the TGI (OVCAR-4 ovarian) is reported as > 100 µM, the TGI (UACC-257 melanoma) is reported as > 100 µM and the TGI (A498 renal) is reported as > 100 µM. For the same compound, the TGI (OVCAR-8 ovarian) was > 100 µM, the TGI (RPMI-8226 leukemia) was > 100 µM and the TGI (SF-295 CNS) was > 100 µM. For the same compound, the TGI (UACC-62 melanoma) was > 100 µM, the TGI (K-562 leukemia) was > 100 µM and the TGI (HS 578T breast) was > 100 µM. For the same compound, the TGI (SR leukemia) was > 100 µM, the TGI (MDA-MB-435) was > 100 µM and the TGI (CAKI-1 renal) was > 100 µM. The TGI (SK-MEL-5 melanoma) was > 100 µM, the TGI (786-0 renal) was > 100 µM and the TGI (PC-3 prostate) was > 100 µM. For the same compound, the TGI (BT-549 breast) was > 100 µM, the TGI (SF-539 CNS) was > 100 µM and the TGI (MALME-3M melanoma) was > 100 µM. For the same compound, the TGI (CCRF-CEM leukemia) was > 100 µM, the TGI (NCI-H226 lung) was > 100 µM and the TGI (SK-MEL-28 melanoma) was > 100 µM. For the same compound, the TGI (HOP-92 NSCLC) was > 100 µM, the TGI (COLO 205 colon) was > 100 µM and the TGI (ACHN renal) was > 100 µM. For the same compound, the TGI (UO-31 renal) was > 100 µM, the TGI (NCI/ADR-RES ovarian) was > 100 µM and the TGI (LOX IMVI melanoma) was > 100 µM. The TGI (TK-10 renal) was > 100 µM, the TGI (RXF 393 renal) was > 100 µM and the TGI (SK-OV-3 ovarian) was > 100 µM. The TGI (T-47D breast) was > 100 µM, the TGI (KM12 colon) was > 100 µM and the TGI (MDA-N) was > 100 µM. For the same compound, the TGI (SNB-19 CNS) was > 100 µM, the TGI (NCI-H522 lung) was > 100 µM and the TGI (HCT-116 colon) was > 100 µM. The TGI (HCC-2998 colon) was > 100 µM, the TGI (MCF7 breast) was > 100 µM and the TGI (MOLT-4 leukemia) was > 100 µM. The TGI (M14 melanoma) was > 100 µM, the TGI (SNB-75 CNS) was > 100 µM and the TGI (MDA-MB-231 breast) was > 100 µM. For the same compound, the TGI (EKVX NSCLC) was > 100 µM, the TGI (IGROV1 ovarian) was > 100 µM and the TGI (SW-620 colon) was > 100 µM. The TGI (A549 NSCLC) was > 100 µM, the TGI (NCI-H460 lung) was > 100 µM and the TGI (NCI-H23 lung) was > 100 µM. The TGI (OVCAR-3 ovarian) was > 100 µM, the TGI (OVCAR-5 ovarian) was > 100 µM and the TGI (HCT-15 colon) was > 100 µM. For the same compound, the TGI (HT29 colon) was > 100 µM, the TGI (U251 CNS) was > 100 µM and the TGI (SK-MEL-2 melanoma) was > 100 µM. The TGI (DU-145 prostate) was > 100 µM.
